Tests used:
[1] = molecular target: T1, PRMT5/MEP50 (Homo sapiens, UniProt O14744); assay: PRMT5 Biochemical Assay (PRMT5/MEP50 enzyme assay on peptide substrate, 3H-SAM Flashplate); settings: PRMT5/MEP50 4 nM, 3H-SAM 75 nM, peptide 40 nM, 30 min preincubation at 25 degrees Celsius
T1 construct: Flag-PRMT5; made in house; host or cells: Spodoptera frugiperda (SF9) insect cells, baculovirus (pDEST8)
Summary of the method: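 FLAG-PRMT5/His-MEP50 from Sf9 cells (4 nM) preincubated 30 min at 25 °C with compounds, then reacted with 75 nM 3H-SAM and 40 nM biotinylated histone H4 1-15 peptide in Bicine pH 7.6, 1% DMSO. Stopped with 600 uM cold SAM; streptavidin Flashplate capture, scintillation counts; % inhibition fitted to 3- or 4-parameter curve.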

[2] = test system: Z-138 cell line; assay: Z-138 Proliferation Assay (Cell Titer Glo); type: cell-based; settings: Homo sapiens, 120 h; Z-138 cells, 5 days incubation, ATP (Cell Titer Glo)
Summary of the method: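 Z-138 cells in RPMI with 10% FBS exposed 5 days at 37 °C to nine-point 3-fold dilutions, top 20 μM final, 0.2% DMSO, triplicate. ATP-based CellTiter-Glo luminescence; IC50 from 4-parameter fit of normalized curves.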

T1 sequence (O14744 with tags, fused parts or gaps): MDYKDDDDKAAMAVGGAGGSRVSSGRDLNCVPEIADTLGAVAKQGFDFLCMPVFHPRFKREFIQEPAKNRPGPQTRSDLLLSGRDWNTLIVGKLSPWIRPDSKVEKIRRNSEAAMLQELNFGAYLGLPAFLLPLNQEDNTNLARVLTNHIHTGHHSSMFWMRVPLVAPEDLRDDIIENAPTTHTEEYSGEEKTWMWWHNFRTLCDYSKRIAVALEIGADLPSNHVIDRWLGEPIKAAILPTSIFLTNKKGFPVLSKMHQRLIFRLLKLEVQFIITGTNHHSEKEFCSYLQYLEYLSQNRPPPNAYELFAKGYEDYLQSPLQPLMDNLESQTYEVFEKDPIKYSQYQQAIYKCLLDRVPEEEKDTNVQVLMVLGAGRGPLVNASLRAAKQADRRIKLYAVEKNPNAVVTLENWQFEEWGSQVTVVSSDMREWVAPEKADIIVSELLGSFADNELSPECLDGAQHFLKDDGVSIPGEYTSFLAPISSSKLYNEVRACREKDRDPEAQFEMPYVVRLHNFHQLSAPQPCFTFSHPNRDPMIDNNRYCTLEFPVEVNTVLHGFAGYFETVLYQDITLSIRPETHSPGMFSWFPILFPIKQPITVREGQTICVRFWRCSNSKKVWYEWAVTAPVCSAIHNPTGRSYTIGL
T1 sequence (Q9BQA1 with tags, fused parts or gaps partner limits assumed): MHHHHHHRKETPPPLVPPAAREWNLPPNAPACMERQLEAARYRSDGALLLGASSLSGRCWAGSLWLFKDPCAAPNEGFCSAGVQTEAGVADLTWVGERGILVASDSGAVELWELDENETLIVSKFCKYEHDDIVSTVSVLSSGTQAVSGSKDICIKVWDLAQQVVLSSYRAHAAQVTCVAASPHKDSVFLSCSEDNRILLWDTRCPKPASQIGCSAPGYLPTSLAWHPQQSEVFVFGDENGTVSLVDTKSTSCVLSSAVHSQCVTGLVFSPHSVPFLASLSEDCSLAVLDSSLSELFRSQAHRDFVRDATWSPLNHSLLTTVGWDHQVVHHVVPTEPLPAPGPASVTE

IC50 [1]	SMILES	EC50 [2]
1 to 10 µM	CC(=O)N1CC(Nc2cc(C(=O)NC[C@H](O)CN3CCc4[nH]ncc4C3)ncn2)C1 [Compound 3-23]	> 5 µM
1 to 10 µM	O=C(COc1cccc2cccnc12)NCC(O)CN1CCc2cnccc2C1 (stereo not drawn) [Compound 2-7, N-[2-hydroxy-3-(1,2,3,4-tetrahydro-2,6-naphthyridin-2-yl)propyl]-2-(quinolin-8-yloxy)acetamide]	> 5 µM
> 10 µM	CC(=O)N1CCC(Nc2cc(C(=O)NC[C@H](O)CN3CCc4[nH]cnc4C3)ccn2)CC1 [Compound 3-36, (S)-2-((1-acetylpiperidin-4-yl)amino)-N-(3-(6,7-dihydro-1H-imidazo[4,5-c]pyridin-5(4H)-yl)-2-hydroxypropyl)isonicotinamide]	> 5 µM
0.101 to 1 µM	O=C(NC[C@H](O)CN1CCc2ncccc2C1)c1cc(NC2COC2)ncn1 [Compound 2-12, (S)—N-(3-(7,8-dihydro-1,6-naphthyridin-6(5H)-yl)-2-hydroxypropyl)-6-(oxetan-3-ylamino)pyrimidine-4-carboxamide]	1 to 10 µM
> 10 µM	CC(=O)N1CCC(Nc2cc(C(=O)NC[C@H](O)CN3CCc4cn[nH]c4C3)ncn2)CC1 [Compound 3-51]	> 5 µM
0.101 to 1 µM	CC(=O)N1CCC(Nc2cc(C(=O)NC[C@H](O)CN3CCc4cnccc4C3)ccn2)CC1 [Compound 2-18]	0.101 to 1 µM
> 10 µM	Nc1nc2c(s1)CN(C[C@@H](O)CNC(=O)c1cc(NC3COC3)ncn1)CC2 [Compound 1-23]	> 5 µM
< 0.1 µM	CC(=O)N1CCC(Nc2cc(C(=O)NC[C@H](O)CN3CCc4ncccc4C3)ncn2)CC1 [Compound 2-14, (S)-6-((1-acetylpiperidin-4-yl)amino)-N-(3-(7,8-dihydro-1,6-naphthyridin-6(5H)-yl)-2-hydroxypropyl)pyrimidine-4-carboxamide]	1 to 10 µM
> 10 µM	Cc1nc2c([nH]1)CCN(C[C@@H](O)CNC(=O)c1cc(NC3COC3)ncn1)C2 [Compound 3-41]	> 5 µM
> 10 µM	CC(=O)N1CCC(Nc2cc(C(=O)NC[C@H](O)CN3CCc4nc(C)[nH]c4C3)ccn2)CC1 [Compound 3-54]	> 5 µM
> 10 µM	CC(=O)N1CC(Nc2cc(C(=O)NC[C@H](O)CN3CCc4c(ncn4C)C3)ncn2)C1 [Compound 3-45]	> 5 µM
> 10 µM	CC(=O)N1CC(Nc2cc(C(=O)NC[C@H](O)CN3CCCc4c3cnn4C)ncn2)C1 [Compound 3-46]	> 5 µM
0.101 to 1 µM	CC(=O)N1CC(Nc2cc(C(=O)NC[C@H](O)CN3CCc4ncccc4C3)ncn2)C1 [Compound 2-9, (S)-6-((1-acetylazetidin-3-yl)amino)-N-(3-(7,8-dihydro-1,6-naphthyridin-6(5H)-yl)-2-hydroxypropyl)pyrimidine-4-carboxamide]	> 5 µM
0.101 to 1 µM	CC(=O)N1CC(Nc2cc(C(=O)NC[C@H](O)CN3CCc4cnccc4C3)ncn2)C1 [Compound 2-16]	> 5 µM
0.101 to 1 µM	CC(=O)N1CCC(Nc2cc(C(=O)NC[C@H](O)CN3CCc4ccncc4C3)ccn2)CC1 [Compound 2-19, (S)-2-((1-acetylpiperidin-4-yl)amino)-N-(3-(3,4-dihydro-2,7-naphthyridin-2(1H)-yl)-2-hydroxypropyl)isonicotinamide]	> 5 µM
> 10 µM	CC(=O)N1CCC(Nc2cc(C(=O)NC[C@H](O)CN3CCc4c(ncn4C)C3)ncn2)CC1 [Compound 3-35, (S)-6-((1-acetylpiperidin-4-yl)amino)-N-(2-hydroxy-3-(1-methyl-6,7-dihydro-1H-imidazo[4,5-c]pyridin-5(4H)-yl)propyl)pyrimidine-4-carboxamide]	> 5 µM
1 to 10 µM	CC(=O)N1CCC(Nc2cc(C(=O)NC[C@H](O)CN3CCc4nc(C)sc4C3)ncn2)CC1 [Compound 1-7, (S)-6-((1-acetylpiperidin-4-yl)amino)-N-(2-hydroxy-3-(2-methyl-6,7-dihydrothiazolo[5,4-c]pyridin-5(4H)-yl)propyl)pyrimidine-4-carboxamide]	> 5 µM
1 to 10 µM	CC(=O)N1CC(Nc2cc(C(=O)NC[C@H](O)CN3CCc4ccncc4C3)ncn2)C1 [Compound 2-22]	> 5 µM
0.101 to 1 µM	CC(=O)N1CCC(Nc2cc(C(=O)NC[C@H](O)CN3CCc4cccnc4C3)ncn2)CC1 [Compound 2-11, (S)-6-((1-acetylpiperidin-4-yl)amino)-N-(3-(5,6-dihydro-1,7-naphthyridin-7(8H)-yl)-2-hydroxypropyl)pyrimidine-4-carboxamide]	> 5 µM
1 to 10 µM	CC(=O)N1CCC(Nc2cc(C(=O)NC[C@H](O)CN3CCc4ccncc4C3)ncn2)CC1 [Compound 2-23, (S)-6-((1-acetylpiperidin-4-yl)amino)-N-(3-(3,4-dihydro-2,7-naphthyridin-2(1H)-yl)-2-hydroxypropyl)pyrimidine-4-carboxamide]	> 5 µM
1 to 10 µM	CC(=O)N1CCC(Nc2cc(C(=O)NC[C@H](O)CN3CCc4ncsc4C3)ccn2)CC1 [Compound 1-19, (S)-2-((1-acetylpiperidin-4-yl)amino)-N-(3-(6,7-dihydrothiazolo[5,4-c]pyridin-5(4H)-yl)-2-hydroxypropyl)isonicotinamide]	> 5 µM

Source: patent US20170210751A1, “PRMT5 INHIBITORS AND USES THEREOF” (Epizyme, Inc., priority 2014, published 2017)
